Source: patent US8618114B2 (priority 2008, dated 2013)
Where a name gives a salt, the structure may show the parent alone.

Experiments:
5-HT6 receptor [1] = molecular target: T1, 5-HT6 receptor (Homo sapiens (Human), UniProt P50406); assay: competitive radioligand binding ([3H] Lysergic acid diethylamide) to serotonin 5-HT6 receptors, HeLa cell membranes; conditions: read-out: IC50, competitive assay of serotonin 5-HT6 receptor inhibition; displacement of 1.5 nM [3H] Lysergic acid diethylamide, 120 min at 37° C.
T1 sequence (P50406 whole entry): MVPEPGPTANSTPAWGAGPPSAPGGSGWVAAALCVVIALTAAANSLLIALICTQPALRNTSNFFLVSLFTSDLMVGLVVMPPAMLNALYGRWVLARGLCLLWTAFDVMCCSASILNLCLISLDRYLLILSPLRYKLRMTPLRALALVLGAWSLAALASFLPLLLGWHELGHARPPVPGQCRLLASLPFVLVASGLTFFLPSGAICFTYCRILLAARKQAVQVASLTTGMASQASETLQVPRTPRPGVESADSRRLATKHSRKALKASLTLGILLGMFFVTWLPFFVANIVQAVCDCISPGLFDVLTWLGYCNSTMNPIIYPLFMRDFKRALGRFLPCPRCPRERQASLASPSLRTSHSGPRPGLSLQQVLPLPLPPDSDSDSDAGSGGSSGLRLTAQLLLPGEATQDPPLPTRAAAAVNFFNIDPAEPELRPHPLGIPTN
Protocol: Determination of activity of the compounds of the general formula 1 in the setting of competitive binding to serotonin 5-HT6 receptors.
Screening of the disclosed compounds for their potential ability to interact with serotonin 5-HT6 receptors was carried out by method of radioligand binding. For this purpose membrane species were prepared from expressing recombinant human 5-HT6 receptors HeLa cells by means of their homogenization in glass homogenizer with subsequent separation of plasmatic membranes from cell nucli, mitochondria's and cell wreckages by differential centrifugation. Determination of tested compounds binding to 5-HT6 receptors was carried out according to the method described in [Monsma F J Jr, Shen Y, Ward R P, Hamblin M W and Sibley D R, Cloning and expression of a novel serotonin receptor with high affinity for tricyclic psychotropic drugs. […] After incubation the samples were filtered in vacuo on glass-microfiber filters G/F (Millipor, USA), filters were washed three times with cold solution of the medium and radioactivity was measured by scintillation counter MicroBeta 340 (PerkinElmer, USA). Nonspecific binding which made up 30% of overall binding was determined by incubation of membrane preparations with radioligand in the presence of 5 μM Serotonin (5-HT). Methiothepin was used as positive control. Binding of the tested compounds to the receptor was determined by their ability to displace the radioligand and expressed in percent of displacement. The percent of displacement was calculated according to the following equation:
[formula] wherein: TA—was overall radioactivity in the presence of radioligand only, CA—was radioactivity in the presence of radioligand and tested compound and NA—was radioactivity in the presence of radioligand and Serotonin (5 μM).

5-HT6 receptor [2] = molecular target: T1, 5-HT6 receptor; assay: functional assay for serotonin 5-HT6 receptor inhibition (serotonin-induced intracellular cAMP, LANCE cAMP kit, HEK 293 cells); assay type: cell-based; conditions: HEK 293 cells with expressed 5-HT6 receptor; reduction of serotonin-induced intracellular cAMP
Protocol: Determination of antagonistic activity of compounds of the general formula 1 towards 5-HT6 receptors. Compounds of the general formula 1 were tested for their ability to prevent 5-HT6 receptors activation by serotonin. HEK 293 cells (cells of human embryo's kidney) with artificially expressed 5-HT6 receptor, activation of which by serotonin leads to increasing the concentration of intracellular cAMP, were used. The level of intracellular cAMP was determined using reagent kit LANCE cAMP (PerkinElmer) according to the method described by the manufacturer of the kit [http://las.perkinelmer.com/content/Manuals/MAN_LANCEcAMP384KitUser.pdf]. Effectiveness of the compounds was estimated by their ability to reduce the level of intracellular cAMP induced by serotonin. Table 4 presents IC50 values for the compounds of general formula 1 in the setting of functional assay for serotonin 5-HT6 receptor inhibition. The data given testify their moderate or high antagonistic activity.

male mice of BALB/c line = assay: Mice Behavior in the Elevated Plus Maze; assay type: in vivo, mouse; conditions: for anxiolytic activity in the elevated plus maze: tested compounds i.p., FIG. 14-16
Protocol: Anxiolytic activity of compounds 1.1(11), 1.2.7(1), 1.2.6(1), 1.2.3(1), 1.2.11(1), 1.2.22(1), 1.2.22(18) in test “Mice Behavior in the Elevated Plus Maze”. The experiments were carried out in aged male mice of BALB/c line weighing about 25 g. The animals were housed 5-7 per cage with water and food available. None of the animals was acquainted with the experimental set-up before. Each experimental group included 8 animals.
The procedure used was described earlier by Lister (Lister R. G. The use of a plus-maze to measure anxiety in the mouse. Psychopharmacology, 1987; 92:180-185). Plexiglass set-up consisted of two opened arms of 30×5 cm size and two closed arms of 30×5×15 cm size. Side arms were closed with transparent plexiglass and were connected with the central zone via a platform of 5×5 cm size. The opened arms, central platform and floor were made of black plexiglass. The set-up was mounted on a metallic base which was placed 38.5 cm above the floor level.
The animals were injected intraperitoneally with placebo, Buspirone (5 mg/kg, 30 minutes before training), Lorazepam (0.05 mg/kg, 60 minutes before training) or with one of the tested compounds 1.1(11), 1.2.7(1), 1.2.6(1), 1.2.3(1), 1.2.11(1), 1.2.22(1), 1.2.22(18). Buspirone and Lorazepam were introduced in a maximal effective dose, at which side sedative effect and general decrease of exploratory activity (the number of arm entries during the test) were not observed yet.
Each mouse was placed in the maze center with its head towards the opened arm. Over a period of 5 minutes the sequence and duration of arm entries were registered by means of a computer program. Criterion for entry is a location of all animal's paws inside the arm at the same time. The index of preference was calculated as a ratio of the time spent by the animal in the opened arms as well as the number of entries into the opened arms to the total time spent by it in the opened and closed arms or, respectively, to the whole number of entries to the arms of both types. The number of defecations left by a mouse was regarded as an additional parameter characterizing the anxiety state. Being in normal state the animals usually avoid open arms (the preference index is between 0.2 and 0.3).

rats = assay: Passive avoidance in the shuttle chamber, amnesia caused by MK-801, rats; assay type: in vivo, rat; conditions: MK-801 0.1 mg/kg i.p., compounds injected 60 minutes before the test, FIG. 8-10
Mice of SHK line = assay: Prepulse inhibition of the startle response in mice (Apomorphine model); assay type: in vivo, mouse; conditions: 1 mg/kg i.p. 60 minutes before the test; FIG. 17
Protocol: Mice of SHK line weighing about 24-30 g were used in the test. The experiments were carried out during the light period of animal's diurnal. Apomorphine hydrochloride and Haloperidol were received from Sigma Chemicals Company, (USA). Apomorphine hydrochloride was dissolved in 0.1% solution of ascorbic acid prepared with sterilized water; it was introduced subcutaneously 15 minutes before the test. Haloperidol was dissolved in sterilized water using emulsifier Twin 80, it was introduced intraperitoneally 60 minutes before the test. Compounds 1.2.22(1), 1.2.22(18), 1.2.7(1) were dissolved in sterilized water and introduced intraperitoneally 60 minutes before the test. The injection volume was 10 ml/kg. 0.1%. Solution of ascorbic acid, prepared with sterilized water and Twin 80, was injected to control group of animals.
The test instrument consisted of a chamber made of transparent plexiglass (manufacturer—Columbia Instruments Company, USA) and placed on the platform; the latter was lodged inside the sound insulating chamber. A high frequency sound column transmitting acoustic stimuluses was located 2 cm away from the platform. […] The level of background noise made up 65 dB. Each animal received 4 stimuli of single testing (pulse) stimulus of 50 ms duration and 105 dB or prepulsory stimulus (pre-pulse) of 20 ms duration and 85 dB, after which in 30 ms pulse stimulus of 50 ms duration and 105 dB followed. Time interval between repeated pulse or prepulse in combination with pulse stimuli made up 10 s. Inhibition of the startle in reply to prepulse-plus-pulse stimulus was calculated in percentage towards amplitude of startle in response to isolated pulse stimulus.

male mice of SHK line = assay: Novel object recognition test, Scopolamine amnesia model; assay type: in vivo, mouse; conditions: Scopolamine 1 mg/kg i.p.
Protocol: 14.1.2. Novel object recognition test. The test was carried out in aged male mice of SHK line. […] A mouse was placed into the central chamber and allowed to explore the maze. The floor was cleaned after each animal. The sequence of chamber entries and duration of visits were registered by the observer. The test was ended after 13 entries into the dead-end chambers. Criterion for entry was a location of all animal's paws inside the chamber at the same time.
During the training the animal was placed in the maze with one equiform bowl in each side chamber. In the course of testing (one hour after training) two opposite standing bowls were replaced by identical flasks, and the animal was allowed to explore the maze. The time spent by the animal in each side chamber was registered during the periods of training and testing. Index of novel object recognition was calculated as the ratio of time spent by the animal in the side chambers with novel objects to the total time spent by it in all side chambers.

male rats = assay: Passive avoidance in the shuttle chamber, Scopolamine amnesia model, rats; assay type: in vivo, rat; conditions: compounds injected 60 minutes before the test, read 24 hours after training, FIG. 1-3
Protocol: 14.1.1. Passive Avoidance of mice in the Shuttle Chamber. The experiments were carried out in aged male mice of BALB/c line weighing 20-24 g or male rats weighing 200-250 g.
A shuttle chamber (Ugo Basile, Italy) that consisted of two sections was used. One section was white and lightened, the other one was dark. The sections were connected through a hole which could be overlapped by automatic vertical door. The floor of the dark section was made of transverse metal bars on which DC current impulses could be fed.
On the first day of testing 30 minutes before training the animals were injected intraperitoneally with Scopolamine which causes disturbance of training (memory loss). The animals of the trial group were additionally administered with one of the tested compounds. The animals of the control group were injected with physiological solution. Each group consisted of 8 animals. The animals were placed in the light section, and latent period of the first entry into the dark chamber was registered. Then vertical door was closed and the animal was punished by 0.6 mA DC current for 3 seconds. After that the animal was taken back to its home cage. […]

[3] = compounds i.p. 60 minutes before training, FIG. 7

CNc1nn2c(OC)cc(-c3cccnc3)nc2c1S(=O)(=O)c1ccccc1 [1.2.10(3), 2-methylamino-7-methoxy-5-(pyridin-3-yl)-3-phenylsulfonyl-pyrazolo[1,5-a]pyrimidine]
IC50 (5-HT6 receptor [1]): < 10 nM
IC50 (5-HT6 receptor [2]): 12 nM

CNc1nn2c(N)cc(C)nc2c1S(=O)(=O)c1ccccc1 [1.2.11(1), 7-amino-5-methyl-2-methylamino-3-phenylsulfonyl-pyrazolo[1,5-a]pyrimidine]
IC50 (5-HT6 receptor [1]): 0.293 nM
anxiolytic activity in the elevated plus maze (male mice of BALB/c line): anxiolytic activity analogous to the activity of control compounds
IC50 (5-HT6 receptor [2]): 12 nM

CNc1nn2c(NCCN(C)C)cc(C)nc2c1S(=O)(=O)c1ccccc1 [1.2.12(3), 7-(2-dimethylamino)ethylamino-5-methyl-2-methylamino-3-phenylsulfonyl-pyrazolo[1,5-a]pyrimidine]
IC50 (5-HT6 receptor [1]): 69.9 nM
IC50 (5-HT6 receptor [2]): 1550 nM

CNc1nn2c(N3CCN(C)CC3)cc(C)nc2c1S(=O)(=O)c1ccccc1 [1.2.12(4).HCl]
IC50 (5-HT6 receptor [1]): 4.19 nM
IC50 (5-HT6 receptor [2]): 173 nM

CNc1nn2c(C)c(CCC(=O)N(C)CCN(C)C)c(C)nc2c1S(=O)(=O)c1ccccc1 [1.2.19(2).HCl]
IC50 (5-HT6 receptor [1]): 174 nM
IC50 (5-HT6 receptor [2]): 1680 nM

CNc1nn2c(C)c(CCC(=O)N(C)CCCN(C)C)c(C)nc2c1S(=O)(=O)c1ccccc1 [1.2.19(3).HCl]
IC50 (5-HT6 receptor [1]): 291 nM
IC50 (5-HT6 receptor [2]): 2280 nM

CNc1nn2c(C)c(CCC(=O)N3CCN(C)CC3)c(C)nc2c1S(=O)(=O)c1ccccc1 [1.2.19(4).HCl]
IC50 (5-HT6 receptor [1]): 306 nM
IC50 (5-HT6 receptor [2]): 6060 nM

CNc1nn2c(C)c(N)c(C)nc2c1S(=O)(=O)c1ccccc1.Cl [1.2.22(1), 6-amino-5,7-dimethyl-2-methylamino-3-phenylsulfonyl-pyrazolo[1,5-a]pyrimidine]
effect on amnesia caused by MK-801 (latent period, light arm stay, dark arm entries) (rats): decrease amnesia caused by MK-801
effect on Apomorphine-disturbed prepulse inhibition of startle (Mice of SHK line): prevented disturbance of prepulse inhibition of startle caused by Apomorphine
prevention of Scopolamine-disturbed novel object recognition (male mice of SHK line; [3]): prevent memory impairment caused by Scopolamine

CNc1nn2c(C)c(N)c(C)nc2c1S(=O)(=O)c1ccccc1 [1.2.22(1).HCl]
IC50 (5-HT6 receptor [1]): 0.67 nM
IC50 (5-HT6 receptor [2]): 11.3 nM

CNc1nn2c(C)c(CN)c(C)nc2c1S(=O)(=O)c1ccccc1 [1.2.22(2).HCl]
IC50 (5-HT6 receptor [1]): 0.56 nM
IC50 (5-HT6 receptor [2]): 9 nM

CNc1nn2c(C)c(CCN)c(C)nc2c1S(=O)(=O)c1ccccc1 [1.2.22(3).HCl]
IC50 (5-HT6 receptor [1]): 0.645 nM
IC50 (5-HT6 receptor [2]): 45 nM

CNc1nn2c(C)c(CN)c(C)nc2c1S(=O)(=O)c1cccc(Cl)c1 [1.2.22(5).HCl]
IC50 (5-HT6 receptor [1]): 0.227 nM
IC50 (5-HT6 receptor [2]): 10 nM

CNc1nn2c(C)c(N(C)C)c(C)nc2c1S(=O)(=O)c1ccccc1 [1.2.22(18)]
effect on amnesia caused by MK-801 (latent period, light arm stay, dark arm entries) (rats): decrease amnesia caused by MK-801
effect on Apomorphine-disturbed prepulse inhibition of startle (Mice of SHK line): prevented disturbance of prepulse inhibition of startle caused by Apomorphine
anxiolytic activity in the elevated plus maze (male mice of BALB/c line): anxiolytic activity analogous to the activity of control compounds
effect on amnesia caused by Scopolamine (latent period, light arm stay, dark arm entries) (male rats): decrease amnesia
prevention of Scopolamine-disturbed novel object recognition (male mice of SHK line; [3]): prevent memory impairment caused by Scopolamine

O=C1CC2(CCCC2)CC(=O)N1CCCCN1CCN(c2ncccn2)CC1 [Buspirone, reference compound]
anxiolytic effect in the elevated plus maze (male mice of BALB/c line; Buspirone 5 mg/kg i.p., 30 minutes before training): well-marked anxiolytic effect

Cc1ccc2c(c1)c1c(n2CCc2ccc(C)nc2)CCN(C)C1 [Dimebon, reference compound]
prevention of Scopolamine-disturbed novel object recognition (male mice of SHK line; Dimebon 0.1 mg/kg i.p. 5 minutes before training): prevented

O=C(CCCN1CCC(O)(c2ccc(Cl)cc2)CC1)c1ccc(F)cc1 [Haloperidol, reference compound]
effect on Apomorphine-disturbed prepulse inhibition of startle (Mice of SHK line): prevented disturbance of prepulse inhibition of startle caused by Apomorphine

O=C1Nc2ccc(Cl)cc2C(c2ccccc2Cl)=NC1O (stereo not drawn) [Lorazepam, reference compound]
anxiolytic effect in the elevated plus maze (male mice of BALB/c line; Lorazepam 0.05 mg/kg i.p., 60 minutes before training): well-marked anxiolytic effect

Nc1c2c(nc3ccccc13)CCCC2 [Tacrine, reference compound]
prevention of Scopolamine-disturbed novel object recognition (male mice of SHK line; Tacrine 10 mg/kg i.p. 30 minutes before training): prevented
